Measured values from patent US20260184687A1, “DIHYDROINDENE DERIVATIVES AS MALT1 INHIBITORS” (C4X Discovery Limited, priority 2022, published 2026).
Where two headings read alike, the source gives them in different places.

What was measured:
[1] = target: T1, MALT1-GS-Ub (6-His-hMALT-1 residues 339-715 fused to ubiquitin) (Homo sapiens, UniProt Q9UDY8); test: biochemical;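 further: in vitro MALT1 protease assay: enzyme preincubated with compound 30 min at room temperature, then cleavage of fluorogenic Ac-LVSR-AMC substrate (100 µM) followed by fluorescence every 15 min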
T1 sequence (Q9UDY8 with tags, fused parts or gaps limits assumed): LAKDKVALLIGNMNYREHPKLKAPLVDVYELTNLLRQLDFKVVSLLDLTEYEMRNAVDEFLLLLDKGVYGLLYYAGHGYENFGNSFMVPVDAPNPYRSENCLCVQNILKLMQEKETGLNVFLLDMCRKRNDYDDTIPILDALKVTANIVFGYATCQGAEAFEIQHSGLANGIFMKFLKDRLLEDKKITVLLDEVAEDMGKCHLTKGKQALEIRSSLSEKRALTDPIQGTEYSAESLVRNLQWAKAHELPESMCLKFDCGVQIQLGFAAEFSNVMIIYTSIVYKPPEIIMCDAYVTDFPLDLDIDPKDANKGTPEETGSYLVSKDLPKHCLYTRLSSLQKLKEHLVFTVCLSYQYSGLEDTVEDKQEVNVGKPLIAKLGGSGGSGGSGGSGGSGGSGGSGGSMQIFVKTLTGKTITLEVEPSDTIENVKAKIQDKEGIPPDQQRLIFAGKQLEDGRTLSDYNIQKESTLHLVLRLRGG

[2] = system: IL-2 release from stimulated Jurkat cells; test: Human IL-2 Release Phenotypic Assay (Assay 3); assay type: cell-based; details: Jurkat cells (clone E6-1), 200 ng/mL PMA + 300 ng/mL ionomycin, IL-2 by ELISA
How it was run: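 IC50 values were fitted by 4-parameter non-linear regression to IL-2 release from Jurkat E6-1 cells. Those cells were stimulated for 48 h with PMA (200 ng/mL) plus ionomycin (300 ng/mL) after a 30-min compound pre-incubation at half-log doses in 0.5% DMSO. Cells had been plated at 50 000/well overnight at 37° C.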

[3] = target: T2, FL hMALT1 enzyme (Homo sapiens, UniProt Q9UDY8);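 further: Cell-free protease assay: enzyme preincubated with compound 30 min at room temperature, then cleavage of fluorogenic Ac-LVSR-AMC substrate (100 µM) tracked by fluorescence (ex 360/em 460 nm)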
T2 sequence (Q9UDY8 1-824): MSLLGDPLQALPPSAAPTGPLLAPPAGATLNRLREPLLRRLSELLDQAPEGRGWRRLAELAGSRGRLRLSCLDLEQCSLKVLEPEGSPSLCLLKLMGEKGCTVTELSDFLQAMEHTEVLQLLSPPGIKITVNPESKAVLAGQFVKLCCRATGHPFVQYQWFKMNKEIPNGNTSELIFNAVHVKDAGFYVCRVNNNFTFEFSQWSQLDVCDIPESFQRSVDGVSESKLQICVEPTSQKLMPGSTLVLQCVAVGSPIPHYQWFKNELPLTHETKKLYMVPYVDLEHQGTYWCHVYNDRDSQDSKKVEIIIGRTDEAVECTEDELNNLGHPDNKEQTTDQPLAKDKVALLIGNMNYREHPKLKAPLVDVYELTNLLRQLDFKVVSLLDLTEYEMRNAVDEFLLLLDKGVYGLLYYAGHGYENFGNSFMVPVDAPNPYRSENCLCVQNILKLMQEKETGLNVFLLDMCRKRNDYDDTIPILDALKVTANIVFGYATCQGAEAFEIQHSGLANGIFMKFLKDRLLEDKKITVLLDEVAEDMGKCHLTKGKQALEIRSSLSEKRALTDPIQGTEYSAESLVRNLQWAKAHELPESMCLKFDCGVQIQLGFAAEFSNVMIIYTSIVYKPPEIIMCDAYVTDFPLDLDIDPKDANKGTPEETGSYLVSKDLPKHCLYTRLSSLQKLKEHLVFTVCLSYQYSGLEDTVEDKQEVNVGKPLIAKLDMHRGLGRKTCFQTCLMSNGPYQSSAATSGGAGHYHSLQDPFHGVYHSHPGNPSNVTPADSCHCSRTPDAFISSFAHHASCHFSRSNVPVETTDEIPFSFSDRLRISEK

[4] = target: T1, MALT1-GS-Ub (6-His-hMALT-1 residues 339-715 fused to ubiquitin)

| IC50 [1] | IC50 ([2]; 48 hours) | IC50 [3] | IC50 [4] | IC50 ([2]; Homo sapiens, Jurkat, 48 h) | Compound |
| --- | --- | --- | --- | --- | --- |
| 270 nM | 500 nM | 39 nM | – | – | CN(C(=O)C1CCS(=O)(=O)CC1)[C@@H](c1ccc(NC2Cc3ccccc3C2(C)C)nc1)C(F)(F)F (single isomer, unassigned) [Example 37] |
| – | 210 nM | 6 nM | 240 nM | – | CC1c2ccccc2CC1Nc1ccc([C@H](N(C)C(=O)C2CCS(=O)(=O)CC2)C(F)(F)F)cc1 (stereo in doubt) [Example 9, N-Methyl-N—((S)-2,2,2-trifluoro-1-(4-(((1,2-trans)-1-methyl-2,3-dihydro-1H-inden-2-yl)amino)phenyl)ethyl)tetrahydro-2H-thiopyran-4-carboxamide 1,1-dioxide] |
| – | > 10000 nM | 1200 nM | 3890 nM | – | COC1c2ccccc2CC1Nc1ccc([C@H](N(C)C(=O)C2CCS(=O)(=O)CC2)C(F)(F)F)cc1 (stereo in doubt) [Example 11, N-Methyl-N—((S)-2,2,2-trifluoro-1-(4-(((1,2-trans)-1-methoxy-2,3-dihydro-1H-inden-2-yl)amino)phenyl)ethyl)tetrahydro-2H-thiopyran-4-carboxamide 1,1-dioxide] |
| – | – | 88 nM | – | 470 nM | CC(=O)NC12CC(C(=O)N(C)[C@@H](c3ccc(N[C@H]4Cc5ccccc5C4(C)C)cn3)C(F)(F)F)(C1)C2 [Example 179, 3-Acetamido-N—((S)-1-(5-(((S)-1,1-dimethyl-2,3-dihydro-1H-inden-2-yl)amino)pyridin-2-yl)-2,2,2-trifluoroethyl)-N-methylbicyclo[1.1.1]pentane-1-carboxamide] |
